Assays:
[1] = Precipitate formation when promethazine hydrochloride preparation is mixed with plasma in vitro; assay type: physicochemical; details: mixing ratio not stated
Description: Without being bound by any particular theory, it is believed that this precipitate formation could be related to the venous thrombosis found at the injection site, as well as the cause of other local adverse reactions involving promethazine hydrochloride injection. […] With a composition according to one or more of the embodiments set forth herein, it is expected that a promethazine hydrochloride solution given by the routes of i.v. and i.m. (intramuscular) injection would have fewer incidences of irritation and other adverse reactions at the site of injection.

[2] = intravenous use; cited from earlier work
[3] = in vivo; cited from earlier work

Precipitate formation when solution is mixed with plasma in vitro [1]: precipitates form immediately
SMILES: CC(CN1c2ccccc2Sc2ccccc21)N(C)C.Cl (racemic) [promethazine hydrochloride, 10H-Phenothiazine-10-ethanamine, N,N, α-trimethyl-, monohydrochloride, (±)-]
Adverse reactions at the injection site [2]: some incidents of venous thrombosis at the injection site have been encountered | Plasma creatine kinase levels [3]: raise plasma creatine kinase levels
